One compound from patent publication US20210205329A1 (The University of North Carolina at Chapel Hill, priority 2018, published 2021) can be followed below.

Values joined by “and” are separate entries in the source; they are usually repeats but may differ in a detail not shown here. Equal entries are not always repeated.

One assay deals with TLR3 signal. The assay can be described thus: Poly(I:C)-activated TLR3 signaling in RAW264.7 cells. In kind it is cell-based, mouse. The note with it: 1 μM; Poly-IC 25 μg/ml; 24 hrs.
In the next assay the test system is MCP-1. Put plainly: MCP-1 ELISA in P rat NAc. The assay is classed as in vivo. The note with it: 15 mg/kg I.P., 45 min. As to the method:
(§1) ELISA. Brain tissue micropunches were lysed with Cellyte MT and the extracts were assayed for protein content by the BCA procedure (Pierce) and for MCP-1 using the rat MCP-1 ELISA kit (Raybiotech—ERC-MCP-1-CL; Norcross, Ga., USA) or for fracktalkine using the rat fractalkine ELISA kit (Raybiotech—ERC-CX3CL1-CL; Norcross, Ga., USA) as per manufacturer's instructions.
(§2) Next, potential sex differences were directly examined in baseline or 3α,5α-THP inhibition of MCP-1 and pIRF7 expression in female vs. male P rat NAc (FIG. 9). […] Systemic administration of 3α,5α-THP (15 mg/kg, I.P.) to naïve female and male P rats inhibited the expression of MCP-1 (40% in female rat NAc; 25% in male rat NAc). Likewise, 3α,5α-THP administration to naïve female and male P rats inhibited the expression of pIRF7 to the same extent, (55% in female rat NAc; 55% in male rat NAc).
On the technique in general: An ELISA detects its analyte on a solid surface through an enzyme-linked reagent.

The test system of the next assay is TLR2 signaling. Put plainly: Pam3Cys-activated TLR2 signaling in RAW264.7 cells. The assay is classed as cell-based, mouse. On the procedure:
Because multiple TLRs signal through MD-2, […] and MyD-88, the specificity of the neurosteroid 3α,5α-THP on TLR2, TLRS and TLR7 signal activation was examined in RAW264.7 ceils (FIG. 7). Pam3Cys (10 μg/ml) activated TLR2 signaling, evidenced by increases in pCREB, pERK1/2, TRAF6 and pATF-2, that were sustained for 24 hrs and inhibited by 3α,5α-THP (1 μM) (50-60% compared to vehicle).

For another assay, the system named is TLR7 signal in P rat NAc. The assay can be described thus: TLR7 signal in P rat NAc after systemic 3α,5α-THP (immunoblot). The settings on record: 15 mg/kg I.P. The assay is classed as in vivo. On the procedure:
Neuropsychopharmacology 40(8): 1549-1559; Aurelian L, et al. (2016). Transl Psychiatry 6: e815). Systemic administration of 3α,5α-THP (15 mg/kg, I.P.) to naïve female P rats inhibited the expression of TLR7 (40%), pIRF7 (40%), and TRAF6 (40%) in P rat NAc, with no effect on IRF3. Similar results were obtained in a separate study of the male P rats.
as §2
On the technique in general: In western blotting, separated proteins are transferred to a membrane and probed.

The test system of another assay is CX3CL1. The assay can be described thus: CX3CL1 (fracktalkine) ELISA in P rat NAc. The assay is classed as in vivo. The note with it: 15 mg/kg IP, 45 min. As to the method:
Rats were administered VEH or 3α,5α-THP (15 mg/kg, IP) and sacrificed after 45 min. CX3CL1 was measured by ELISA (Raybiotech—ERC-CX3CL1-CL; Norcross, Ga., USA) as per manufacturer's instructions. (Two-way ANOVA: F (1,28)=13.63, P<0.001, Tukey's multiple comparisons test *P<0.05).
as §1
Activation of TLR4 signaling can result in the production of both pro-inflammatory and anti-inflammatory cytokines in P rat brain, but the factors that determine the outcome of TLR4 activation are unknown. […] 3α,5α-THP administration to naïve female and male P rats enhanced the expression of CX3CL1 by 90% in female rat NAc and 34% in male rat NAc. No sex difference in the effect of 3α,5α-THP was observed.

On to `CC(=O)[C@H]1CC[C@H]2[C@@H]3CC[C@H]4C[C@H](O)CC[C@]4(C)[C@H]3CC[C@]12C` [3α,5α-THP, (3α,5α)3-hydroxypregnan-20-one], for which the “effect of Poly(I:C) on IP-10 (CXCL10) expression” value in the assay on TLR3 signal was “not altered”. Moreover, the “inhibition of MCP-1 expression in NAc” value with MCP-1 (naïve female P rats) amounted to 40%; in the assay on MCP-1 (naïve male P rats), 25%. The “effect of Pam3Cys on pCREB, pERK1/2, pATF2 and TRAF6” value in the assay with TLR2 signaling (1 μM, Pam3Cys 10 μg/ml, harvested after 24 hrs) is recorded as “completely inhibited”. The inhibition at 1 µM in the assay on TLR2 signaling (Mus musculus, RAW264.7, Pam3Cys 10 μg/ml, 24 hrs, compared to vehicle, read-out: inhibition of Pam3Cys-induced increases in pCREB, pERK1/2, TRAF6 and pATF-2) lay in the range of 50 to 60%. In addition, the “inhibition of TRAF6” value in the assay on TLR7 signal in P rat NAc (male P rats) came to 45%. Besides, the “effect on IRF3 in NAc” value in the assay on TLR7 signal in P rat NAc (naïve female P rats) is reported as “no effect”. In addition, the “inhibition of TLR7 expression in NAc” value in the assay on TLR7 signal in P rat NAc (naïve female P rats) worked out at 40%. Also, the “inhibition of TRAF6 expression in NAc” value with TLR7 signal in P rat NAc (naïve female P rats) is on record as 40%. Moreover, the “inhibition of pIRF7 expression in NAc” value is 40% and 55% in the assay with TLR7 signal in P rat NAc (naïve female P rats); 55% in the assay on TLR7 signal in P rat NAc (naïve male P rats). Besides, the “enhancement of CX3CL1 expression in NAc” value is given as 90% in the assay on CX3CL1 (naïve female P rats) and 34% in the assay with CX3CL1 (naïve male P rats).
